Source: ChEMBL document CHEMBL5523743, “Identification of Psychoplastogenic Tropanes Lacking Muscarinic Activity” (J Med Chem, 2024)
Calls of active or inactive are those of the source. The rule behind the calls is not given here.

Key:
[1] = system: Neuron; assay: Neuroplasticity effect in Wistar rat brain cortical neuron assessed as increase in neurite outgrowth at 0.25 to 10 uM after 72 hrs; format: functional, cell-based; settings: dose 0.25-10 µM
[2] = target: T1, Muscarinic acetylcholine receptor M1 (Homo sapiens) (UniProt P11229); assay: Antagonist activity at recombinant human M1 receptor expressed in CHO-K1 cells incubated for 15 mins in presence of acetylcholine by aequorin assay; format: functional, cell-based
T1 sequence (whole entry): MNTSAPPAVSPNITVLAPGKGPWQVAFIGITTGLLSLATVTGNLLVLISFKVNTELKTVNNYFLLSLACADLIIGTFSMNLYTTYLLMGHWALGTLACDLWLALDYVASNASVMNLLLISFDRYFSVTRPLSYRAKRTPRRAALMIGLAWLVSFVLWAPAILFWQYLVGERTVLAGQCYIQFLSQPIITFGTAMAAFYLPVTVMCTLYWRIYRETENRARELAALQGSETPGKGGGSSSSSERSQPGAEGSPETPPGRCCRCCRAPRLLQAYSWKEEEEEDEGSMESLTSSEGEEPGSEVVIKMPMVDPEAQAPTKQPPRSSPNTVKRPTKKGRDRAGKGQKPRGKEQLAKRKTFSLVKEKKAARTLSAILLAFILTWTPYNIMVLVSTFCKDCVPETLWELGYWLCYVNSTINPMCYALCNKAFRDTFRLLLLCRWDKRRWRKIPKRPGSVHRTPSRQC

[3] = system: Neuron; assay: Cytotoxicity against Wistar rat brain cortical neurons assessed as decrease in average number of neurites per neuron at 0.25 to 10 uM; format: toxicity, cell-based; settings: dose 0.25-10 µM
[4] = target: T2, Muscarinic acetylcholine receptor M5 (Homo sapiens) (UniProt P08912); assay: Agonist activity at recombinant human M5 receptor expressed in CHO-K1 cells incubated for 15 mins by aequorin assay; format: functional, cell-based
T2 sequence (whole entry): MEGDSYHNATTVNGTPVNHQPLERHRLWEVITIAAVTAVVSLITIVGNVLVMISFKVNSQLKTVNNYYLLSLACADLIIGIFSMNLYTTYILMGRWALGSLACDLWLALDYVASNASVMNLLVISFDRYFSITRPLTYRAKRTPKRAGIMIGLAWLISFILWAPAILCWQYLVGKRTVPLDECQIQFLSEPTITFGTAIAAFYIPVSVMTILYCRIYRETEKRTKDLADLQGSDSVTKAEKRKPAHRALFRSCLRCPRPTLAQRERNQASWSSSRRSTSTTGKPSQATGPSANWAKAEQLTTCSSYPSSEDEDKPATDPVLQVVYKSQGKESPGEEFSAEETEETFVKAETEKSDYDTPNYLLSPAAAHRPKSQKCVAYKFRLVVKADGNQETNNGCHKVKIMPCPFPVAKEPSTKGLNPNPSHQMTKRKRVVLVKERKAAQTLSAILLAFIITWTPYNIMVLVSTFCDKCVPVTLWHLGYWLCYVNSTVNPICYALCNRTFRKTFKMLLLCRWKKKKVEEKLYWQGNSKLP

[5] = target: T3, Muscarinic acetylcholine receptor M2 (Homo sapiens) (UniProt P08172); assay: Agonist activity at M2 receptor (unknown origin) by GTPgamma[35S] based Topcount scintillation counting method; format: functional
T3 sequence (whole entry): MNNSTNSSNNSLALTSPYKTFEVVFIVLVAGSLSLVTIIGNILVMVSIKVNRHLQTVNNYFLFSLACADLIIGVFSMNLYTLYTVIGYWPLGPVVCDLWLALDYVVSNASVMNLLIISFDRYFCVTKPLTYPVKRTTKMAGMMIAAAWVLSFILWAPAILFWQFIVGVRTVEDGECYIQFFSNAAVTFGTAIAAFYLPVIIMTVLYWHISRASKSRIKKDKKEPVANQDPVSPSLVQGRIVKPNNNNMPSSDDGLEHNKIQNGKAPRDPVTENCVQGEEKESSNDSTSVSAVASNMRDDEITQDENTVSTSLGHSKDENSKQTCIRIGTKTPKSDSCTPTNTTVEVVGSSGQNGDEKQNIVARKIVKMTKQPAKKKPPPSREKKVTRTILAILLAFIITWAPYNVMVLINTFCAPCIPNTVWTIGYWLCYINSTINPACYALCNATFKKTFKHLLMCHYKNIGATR

[6] = target: T1, Muscarinic acetylcholine receptor M1 (Homo sapiens); assay: Agonist activity at recombinant human M1 receptor expressed in CHO-K1 cells incubated for 15 mins by aequorin assay; format: functional, cell-based
[7] = target: T4, 5-hydroxytryptamine receptor 2C (Homo sapiens) (UniProt P28335); assay: Agonist activity at recombinant human 5HT2CR expressed in CHO-K1 cells incubated for 60 mins by HTRF method; format: functional, cell-based
T4 sequence (whole entry): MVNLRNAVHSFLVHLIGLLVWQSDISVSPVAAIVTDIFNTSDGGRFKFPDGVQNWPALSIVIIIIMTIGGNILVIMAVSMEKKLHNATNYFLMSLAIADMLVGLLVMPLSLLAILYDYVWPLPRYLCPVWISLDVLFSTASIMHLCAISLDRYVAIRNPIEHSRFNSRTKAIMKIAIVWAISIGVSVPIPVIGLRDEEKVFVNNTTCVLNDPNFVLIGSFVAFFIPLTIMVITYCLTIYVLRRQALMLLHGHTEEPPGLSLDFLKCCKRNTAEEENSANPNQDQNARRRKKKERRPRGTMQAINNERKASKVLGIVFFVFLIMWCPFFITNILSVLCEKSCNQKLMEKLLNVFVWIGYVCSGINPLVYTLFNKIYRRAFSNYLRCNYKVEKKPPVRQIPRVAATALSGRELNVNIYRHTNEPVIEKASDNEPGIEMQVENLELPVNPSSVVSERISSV

[8] = target: 5-hydroxytryptamine receptor 2A (Homo sapiens) (UniProt P28223); assay: Agonist activity at recombinant human 5HT2AR expressed in CHO-K1 cells incubated for 60 mins by HTRF method; format: functional, cell-based
Chain of 5-hydroxytryptamine receptor 2A (Homo sapiens) (P28223 whole entry): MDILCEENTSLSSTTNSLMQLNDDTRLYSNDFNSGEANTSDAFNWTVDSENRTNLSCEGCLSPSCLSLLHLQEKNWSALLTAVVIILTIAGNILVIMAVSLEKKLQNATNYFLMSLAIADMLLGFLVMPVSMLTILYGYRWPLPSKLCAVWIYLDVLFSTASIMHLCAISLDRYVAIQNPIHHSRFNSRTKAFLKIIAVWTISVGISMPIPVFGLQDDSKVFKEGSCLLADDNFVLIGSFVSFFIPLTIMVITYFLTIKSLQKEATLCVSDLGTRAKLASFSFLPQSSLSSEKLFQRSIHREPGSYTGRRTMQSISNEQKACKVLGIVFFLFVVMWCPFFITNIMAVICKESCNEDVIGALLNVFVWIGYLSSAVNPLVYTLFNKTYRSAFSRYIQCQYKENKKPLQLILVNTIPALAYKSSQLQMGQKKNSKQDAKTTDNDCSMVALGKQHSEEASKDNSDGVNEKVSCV

[9] = target: 5-hydroxytryptamine receptor 2A (Homo sapiens) (UniProt P28223); assay: Displacement of [3H]-DOI from 5HT2AR (unknown origin) by Topcount scintillation counting method
[10] = target: Muscarinic acetylcholine receptor M3 (Homo sapiens) (UniProt P20309); assay: Agonist activity at recombinant human M3 receptor expressed in CHO-K1 cells incubated for 15 mins by aequorin assay; format: functional, cell-based
Chain of Muscarinic acetylcholine receptor M3 (Homo sapiens) (P20309 whole entry, looked up): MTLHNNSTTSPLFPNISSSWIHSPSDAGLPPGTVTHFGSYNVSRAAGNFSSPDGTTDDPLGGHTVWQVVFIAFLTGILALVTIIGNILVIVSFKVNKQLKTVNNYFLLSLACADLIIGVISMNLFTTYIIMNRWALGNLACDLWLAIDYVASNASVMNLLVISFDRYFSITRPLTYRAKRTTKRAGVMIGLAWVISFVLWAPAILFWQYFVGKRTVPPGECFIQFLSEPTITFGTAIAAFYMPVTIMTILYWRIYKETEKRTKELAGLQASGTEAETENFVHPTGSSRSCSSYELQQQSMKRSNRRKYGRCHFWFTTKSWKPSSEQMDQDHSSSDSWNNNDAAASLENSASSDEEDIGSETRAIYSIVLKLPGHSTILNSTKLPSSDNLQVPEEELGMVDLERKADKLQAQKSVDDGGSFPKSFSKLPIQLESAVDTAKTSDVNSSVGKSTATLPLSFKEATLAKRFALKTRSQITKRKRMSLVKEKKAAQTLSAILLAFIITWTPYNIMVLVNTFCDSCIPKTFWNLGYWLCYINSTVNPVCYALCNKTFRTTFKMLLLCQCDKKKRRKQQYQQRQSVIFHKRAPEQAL

[11] = target: T5, Muscarinic acetylcholine receptor M4 (Homo sapiens) (UniProt P08173); assay: Agonist activity at M4 receptor (unknown origin) by GTPgamma[35S] based Topcount scintillation counting method; format: functional
T5 sequence (whole entry): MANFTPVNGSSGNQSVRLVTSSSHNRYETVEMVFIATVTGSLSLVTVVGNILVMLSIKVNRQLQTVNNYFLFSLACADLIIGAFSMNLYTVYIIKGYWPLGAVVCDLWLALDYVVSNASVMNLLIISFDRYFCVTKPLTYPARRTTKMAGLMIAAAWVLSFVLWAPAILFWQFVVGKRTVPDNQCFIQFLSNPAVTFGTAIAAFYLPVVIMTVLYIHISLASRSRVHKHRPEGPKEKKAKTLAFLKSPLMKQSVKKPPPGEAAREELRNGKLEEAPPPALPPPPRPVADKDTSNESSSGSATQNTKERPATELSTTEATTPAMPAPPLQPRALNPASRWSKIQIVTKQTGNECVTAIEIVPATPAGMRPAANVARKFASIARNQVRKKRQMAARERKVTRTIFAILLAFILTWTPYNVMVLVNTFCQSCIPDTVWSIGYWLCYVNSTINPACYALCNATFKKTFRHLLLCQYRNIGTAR

[12] = target: T4, 5-hydroxytryptamine receptor 2C (Homo sapiens); assay: Displacement of [3H]-DOI from 5HT2CR (unknown origin) by Topcount scintillation counting method
[13] = system: Neuron; assay: Neuroplasticity effect in Wistar rat brain cortical neuron assessed as increase in neurite outgrowth after 72 hrs; format: functional, cell-based; settings: dose 0.25-10 µM
[14] = target: T4, 5-hydroxytryptamine receptor 2C (Homo sapiens); assay: Antagonist activity at recombinant human 5HT2CR expressed in CHO-K1 cells incubated for 60 mins in presence of alpha-Me-5HT by HTRF method; format: functional, cell-based
[15] = target: T3, Muscarinic acetylcholine receptor M2 (Homo sapiens); assay: Displacement of [3H]-Scopolamine from M2 receptor (unknown origin) by Topcount scintillation counting method
[16] = target: T1, Muscarinic acetylcholine receptor M1 (Homo sapiens); assay: Displacement of [3H]-Scopolamine from M1 receptor (unknown origin) by Topcount scintillation counting method
[17] = target: 5-hydroxytryptamine receptor 2A (Homo sapiens) (UniProt P28223); assay: Antagonist activity at recombinant human 5HT2AR expressed in CHO-K1 cells incubated for 60 mins in presence of alpha-Me-5HT by HTRF method; format: functional, cell-based
[18] = target: T3, Muscarinic acetylcholine receptor M2 (Homo sapiens); assay: Antagonist activity at M2 receptor (unknown origin) incubated for 1 hr in presence of acetylcholine by GTPgamma[35S] based Topcount scintillation counting method; format: functional
[19] = target: T5, Muscarinic acetylcholine receptor M4 (Homo sapiens); assay: Displacement of [3H]-Scopolamine from M4 receptor (unknown origin) by Topcount scintillation counting method
[20] = target: T5, Muscarinic acetylcholine receptor M4 (Homo sapiens); assay: Antagonist activity at M4 receptor (unknown origin) incubated for 1 hr in presence of oxotremorine by GTPgamma[35S] based Topcount scintillation counting method; format: functional
[21] = target: T2, Muscarinic acetylcholine receptor M5 (Homo sapiens); assay: Antagonist activity at recombinant human M5 receptor expressed in CHO-K1 cells incubated for 15 mins in presence of acetylcholine by aequorin assay; format: functional, cell-based
[22] = target: Muscarinic acetylcholine receptor M3 (Homo sapiens) (UniProt P20309); assay: Displacement of [3H]-Scopolamine from M3 receptor (unknown origin) by Topcount scintillation counting method
[23] = target: T2, Muscarinic acetylcholine receptor M5 (Homo sapiens); assay: Displacement of [3H]-Scopolamine from M5 receptor (unknown origin) by Topcount scintillation counting method
[24] = target: Muscarinic acetylcholine receptor M3 (Homo sapiens) (UniProt P20309); assay: Antagonist activity at recombinant human M3 receptor expressed in CHO-K1 cells incubated for 15 mins in presence of acetylcholine by aequorin assay; format: functional, cell-based

Compound: CN1[C@@H]2CCC[C@H]1[C@H]1[C@@H]2N1c1ccccc1
- Activity [1]: inactive

Compound: COc1cccc(CCN2[C@@H]3CCC[C@H]2CC3)c1
- Activity [1]: Active

Compound: CN1[C@H]2C[C@H](OC(=O)c3ccccc3)C[C@@H]1[C@@H](c1ccccc1)C2
- Activity [1]: inactive
- Activity ([2]; filed as antagonist): Active

Compound: CN1[C@H]2CCC[C@@H]1[C@@H](c1ccccc1F)C2
- Activity [3]: Toxic
- Activity [1]: inactive

Compound: Fc1ccccc1CCN1[C@@H]2CCC[C@H]1CC2
- Activity [1]: Active

Compound: COc1cccc([C@H]2C[C@@H]3CCC[C@H]2N3C)c1
- Activity [1]: Active
- Activity ([2]; filed as antagonist): Active

Compound: COc1ccccc1CCN1[C@@H]2CCC[C@H]1CC2
- Activity ([4]; filed as agonist): Active
- Activity ([5]; filed as agonist): Active
- Activity ([6]; filed as agonist): Active
- Activity ([7]; filed as agonist): Active
- Activity ([8]; filed as agonist): Active
- Activity ([9]; filed as agonist): Active
- Activity ([10]; filed as agonist): Active
- Activity ([11]; filed as agonist): Active
- Activity ([12]; filed as agonist): Active

Compound: COc1ccc2[nH]c3c(c2c1)[C@H]1CC[C@@H](C3)N1C
- Activity [1]: inactive

Compound: COc1ccccc1[C@H]1C[C@@H]2CCC[C@H]1N2C
- Activity [1]: inactive

Compound: O=C1C[C@H]2C[C@H](O)[C@@H](C1)N2CCc1c[nH]c2ccccc12
- Activity [1]: Active

Compound: CN1[C@H]2C[C@@H](O)C[C@@H]1[C@@H](c1ccccc1)C2
- Activity [1]: inactive

Compound: CN1[C@H]2CCC[C@@H]1[C@@H](c1ccc(F)cc1)C2
- Activity [1]: inactive

Compound: CN1[C@@H]2CC[C@H]1C[C@H](OC(=O)/C=C/c1ccccc1)C2
- Activity [13]: Dose-Dependent Effect

Compound: CN1[C@H]2CCC[C@@H]1[C@@H](c1ccccc1)C2
- Activity [1]: inactive

Compound: CN1[C@@H]2CCC[C@H]1[C@H]1[C@@H]2N1c1ccc2[nH]ccc2c1
- Activity [1]: inactive

Compound: CN1[C@H]2CC[C@@H]1C=C(c1c[nH]c3ccccc13)C2
- Activity ([14]; filed as antagonist): Active
- Activity [1]: inactive

Compound: COc1ccc(CCN2[C@@H]3CCC[C@H]2CC3)cc1
- Activity [3]: Toxic
- Activity [1]: inactive

Compound: CN1[C@H]2C[C@H](O)C[C@@H]1[C@@H](c1ccccc1)C2
- Activity [1]: inactive

Compound: CN1[C@@H]2CCC[C@H]1[C@H]1[C@@H]2N1c1cccnc1
- Activity [1]: inactive

Compound: CN1[C@@H]2CC[C@H]1C[C@H](OC(=O)c1ccccc1)C2
- Activity [1]: inactive

Compound: CN1[C@H]2C[C@@H](OC(=O)c3ccccc3)C[C@@H]1[C@@H](c1ccccc1)C2
- Activity [1]: Active
- Activity ([2]; filed as antagonist): Active

Compound: COc1ccc([C@H]2C[C@@H]3CCC[C@H]2N3C)cc1
- Activity [3]: Toxic
- Activity [1]: inactive

Compound: Fc1ccc(CCN2[C@@H]3CCC[C@H]2CC3)cc1
- Activity [1]: Active

Compound: COc1ccc(CN2[C@H]3CC(=O)C[C@@H]2[C@@H](O)C3)cc1
- Activity [4]: inactive
- Activity [15]: inactive
- Activity [16]: inactive
- Activity [17]: inactive
- Activity [5]: inactive
- Activity [18]: inactive
- Activity [6]: inactive
- Activity [19]: inactive
- Activity [20]: inactive
- Activity [7]: inactive
- Activity [8]: inactive
- Activity [9]: inactive
- Activity [14]: inactive
- Activity [10]: inactive
- Activity [1]: Active
- Activity [11]: inactive
- Activity [21]: inactive
- Activity [22]: inactive
- Activity [2]: inactive
- Activity [23]: inactive
- Activity [24]: inactive
- Activity [12]: inactive

Compound: c1ccc(CCN2[C@@H]3CCC[C@H]2CC3)cc1
- Activity [1]: Active

Compound: CN1[C@H]2CCC[C@@H]1[C@@H](c1cccc(F)c1)C2
- Activity [1]: Active
- Activity ([2]; filed as antagonist): Active
